Test results reported in US20160287553A1, “TRANSLATION INHIBITORS IN HIGH-DOSE CHEMO- AND/OR HIGH-DOSE RADIOTHERAPY” (DEUTSCHES KREBSFORSCHUNGSZENTRUM, priority 2013, published 2016).
Entries after “also recorded” stand apart in the source; their conditions may differ.

What was measured:
[1] = test system: human peripheral blood B cells; test: Etoposide-induced apoptosis in B cells; assay type: cell-based; details: B cells (FIG. 1c)
Experimental: (§1) DNA fragmentation was determined by FACS.
(§2) Next, we asked whether Roc-A could also protect other normal primary cells from DNA damage-induced toxicity. To address this question, we examined the protective effect of Roc-A on Etoposide-treated human peripheral blood B cells, NK cells, neutrophils, cardiomyocytes and murine hematopoietic stem and progenitor cells (HSPCs).

[2] = test system: L1236 (Hodgkin's lymphoma), p53 mutated; test: Etoposide-induced cell death in L1236; assay type: cell-based, human; details: L1236 (FIG. 5a)
Experimental: as §1
(§3) Since Roc-A-mediated protection of non-malignant cells from DNA-damage-induced cell death is largely p53-dependent, we predicted that Roc-A would not protect cancer cells which have non-functional p53. […] 1997; 19: 243-253), Reh (Zhou et al, loc cit.), SKW6.4 (Barbarotto et al., J Cell Biochem. 2008; 104: 595-605) and NCI-H209 (Fujita et al. Int J Oncol. 1999; 15: 927-934) which have a WT p53 protein.

[3] = test system: non-malignant cells; test: Fold change in cell death on raising the Etoposide dose, non-malignant cells (FIG. 9a-b); assay type: cell-based; details: 75 nM Roc-A in parallel to Etoposide, 6.25 μM to 50 μM, 24 h
Experimental: (a) Cells from (b) were grouped into malignant and non-malignant cells. Shown are means of three independent experiments. Abbreviations; HSPCs=hematopoietic stem and progenitor cells. (c-d) Malignant and non-malignant cells were exposed to ionizing radiation (IR) in the presence of 75 nM Roc-A or solvent (DMSO) and cell death was determined after 24 h by DNA fragmentation. Depicted is the fold-change in cell death that was measured when doses of IR were increased from 2 Gy to 10 Gy. (c) Cells from (d) were grouped into malignant and non-malignant cells. Shown are means of three independent experiments.
as §1
Roc-A specifically prevents the cause of chemotherapeutic and radiation-induced side-effects, i.e., the death of healthy cells. […] Consequently, high-dose therapy is not possible, as side effects would be too high.

[4] = test system: Peripheral blood T cells; test: Teniposide-, Doxorubicin- and Bleomycin-induced apoptotic cell death in T cells; assay type: cell-based, human; details: Roc-A 75 nM; increasing doses of the drugs (FIG. 1b)
Experimental: as §1
(§4) The radioprotective effect mediated by Roc-A was the highest when cells were treated with Roc-A 1 h before radiation of cells (FIG. 1d). However, when cells were treated 4 h after radiation, the radioprotective effect was still higher than 50% (FIG. 1d).

[5] = test system: Splenocytes from p53+/+ mice; test: Etoposide-induced cell death in p53 wild-type splenocytes; assay type: cell-based, mouse; details: p53-WT splenocytes, 50 μM Etoposide, 75 nM Roc-A (FIG. 4b)
Experimental: as §1
(§5) P53^−/− C57B1/6 mice (B6.Trp53tm1Tyj) were kindly provided by Liu H-K (German Cancer Research Center, Heidelberg, Germany). Spleens of 8-12 week old p53^−/−, and p53^+/+ mice were isolated in parallel, minced and incubated for 30 min in RPMI-1640 medium supplemented with DNase I (50 U/ml) and Collagenase IV (1 mg/ml) at 37° C. and 5% CO2. Splenocytes were filtered by […] cell strainer, washed twice with ice-cold wash buffer (PBS, 0.5% FCS, 2 mM EDTA) and resuspended in Oxford medium (RPMI 1640, 10% FCS, 100 μg/ml Penicillin, 100 μg/ml Streptamycin, 10 mM Hepes, 50 μM β-Mercaptoethanol, 2 mM L-glutamine, 1 mM sodium pyruvate, 100 μM non-essential amino acids) at a concentration of 2×10^6 cells/ml.
(§6) To further investigate the role of p53 in Roc-A-mediated protection of T cells against DNA damage-induced apoptosis, we performed a p53 knock-down experiment using a siRNA approach (FIG. 4a, upper panel). […] Therefore, we examined the effect of Roc-A on p53 knock-out (KO) cells.

[6] = test system: Splenocytes from p53-/- mice; test: Etoposide-induced cell death in p53 knock-out splenocytes; assay type: cell-based, mouse; details: p53-KO splenocytes, 50 μM Etoposide, 75 nM Roc-A (FIG. 4b)
Experimental: as §1, §5, §6

[7] = test system: EU-3 (acute lymphoblastic leukemia), WT p53; test: Etoposide-induced cell death in EU-3; assay type: cell-based, human; details: EU-3 (FIG. 5b)
Experimental: as §1, §3

[8] = test system: ERK; details: Polier et al., op. cit.; cited from earlier work
[9] = test system: p53 protein synthesis; test: Metabolic pulse-labeling and immunoprecipitation of p53; assay type: cell-based, human; details: T cells, after Etoposide treatment, pulse-labeling (FIG. 6c)
Experimental: Subsequently, cells were washed in ice-cold PBS, lysed in IP buffer (20 mM Tris-HCl, […], 2 mM EDTA, 1% Triton X-100, protease inhibitors) and centrifuged (10,000 g, 20 min) to clear lysates. Aliquots were taken for input control and lysates were incubated overnight with sepharose-coupled protein A beads, anti-p53 antibody (FL-393; Santa Cruz, Heidelberg, Germany) or isotype control antibody (Sigma-Aldrich, Munich, Germany). Two wash-steps with IP buffer preceded boiling of beads in denaturing sample buffer at 95° C. for […]. Incorporation of […] into p53 protein was detected by the phosphoimaging system FLA-7000 IR (Fujifilm Europe GmbH, Düsseldorf, Germany).
Thus, Roc-A suppresses DNA-damage-induced upregulation of p53 at the translational level.

[10] = test system: SKW6.4 (B cell leukemia), WT p53; test: Etoposide-induced cell death in SKW6.4; assay type: cell-based, human; details: SKW6.4 (FIG. 5b)
Experimental: as §1, §3

[11] = test system: γ-H2AX; assay type: cell-based; details: Roc-A 75 nM, T cells (FIG. 2a-b)
Experimental: DNA damage was determined by quantification of γ-H2AX foci formation and by alkaline single-cell gel electrophoresis assay (comet assay). For γ-H2AX staining, cells were treated as indicated, fixed in 3% formaldehyde and permeabilized in 90% methanol. Following storage at −20° C. overnight, cells were incubated with mouse serum to block unspecific binding and stained with antibody directed against γ-H2AX (AlexaFluor 488-coupled, 2F3 [BioLegend, Fell, Germany]), or with isotype control antibody (AlexaFluor 488-coupled [BioLegend, Fell, Germany]). The amount of γ-H2AX foci formation was determined by FACS measurement. […] Nuclei were stained with DAPI mounting medium (Dianova, Hamburg, Germany). Comet assays were carried out as previously described (Greve et al., PloS one. 2012; 7: e47185). Briefly, electrophoresis of cellular genomic DNA was performed under alkaline conditions at 4° C. The amount of DNA damage was measured by “Olive Tail Moment”. Analysis of cellular DNA damage was carried out by fluorescence microscopy, using a fully automated cell scanning system Metafer-4 (Metasystems, Altlutβheim, Germany).
To address this question, we determined the level of the DNA-damage marker γ-H2AX, which is generated around the site of a DNA double-strand break (Rogakou et al., J Biol Chem. 1998; 273: 5858-5868).

[12] = test system: neutrophils; test: Etoposide-induced apoptosis in neutrophils; assay type: cell-based, human; details: neutrophils (FIG. 1c)
Experimental: as §1, §2

[13] = test system: DND-41 (T cell leukemia), p53 mutated; test: Etoposide-induced cell death in DND-41; assay type: cell-based, human; details: DND-41 (FIG. 5a)
Experimental: as §1, §3

[14] = test system: Primary human T cells; test: Ionizing radiation (IR)-induced apoptosis in T cells; assay type: cell-based
Experimental: as §1, §4

[15] = test system: cardiomyocytes; test: Etoposide-induced apoptosis in cardiomyocytes; assay type: cell-based, human; details: cardiomyocytes (FIG. 1c)
Experimental: as §1, §2

COc1ccc([C@@]23Oc4cc(OC)cc(OC)c4[C@]2(O)[C@H](O)[C@H](C(=O)N(C)C)[C@H]3c2ccccc2)cc1 [Roc-A, (1R,2R,3S,3aR,8bS)-1,8b-dihydroxy-6,8-dimethoxy-3a-(4-methoxyphenyl)-N,N-dimethyl-3-phenyl-2,3-dihydro-1H-cyclopenta[b][1]benzofuran-2-carboxamide]
Protection against Etoposide-induced apoptosis [1]: protected
Protection against Etoposide-induced cell death [2]: did neither protect
Change in cell death on increased Etoposide doses with Roc-A [3]: only resulted in increased cell death in malignant cells
Drug-induced apoptosis (Teniposide, Doxorubicin, Bleomycin) [4]: reduces Teniposide-, Doxorubicin- and Bleomycin-induced apoptotic cell death in T cells; also recorded: could reduce drug-induced apoptosis in all cases
Protection against Etoposide-induced cell death [5]: protected
Protection against Etoposide-induced cell death [6]: abolished; also recorded: not statistically significant
Protection against Etoposide-induced cell death [7]: protected by Roc-A from Etoposide-induced cell death but to a lesser extent than non-malignant cells
Inhibitory effect on ERK activity / activation [8]: inhibit ERK activation with different efficacies
[35S]methionine incorporation into the p53 protein [9]: inhibits p53 protein translation; also recorded: suppressed [^35S]methionine incorporation into the p53 protein
Protection against Etoposide-induced cell death [10]: protected by Roc-A from Etoposide-induced cell death but to a lesser extent than non-malignant cells
Effect on Etoposide-induced γ-H2AX foci formation [11]: does not prevent Etoposide-induced increase in γ-H2AX; also recorded: did not block Etoposide-induced γ-H2AX foci formation
Protection against Etoposide-induced apoptosis [12]: protected
Protection against Etoposide-induced cell death [13]: did neither protect
Radioprotective effect by time of Roc-A addition ([14]; Roc-A 1 h before radiation (10 Gy) (FIG. 1d)): highest
Radioprotective effect (percent of protection from IR-induced apoptosis) ([14]; Roc-A 4 h after radiation (10 Gy) (FIG. 1d)): higher than 50%
Ionizing radiation-induced apoptosis in T cells ([14]; increasing doses of IR, different concentrations of Roc-A, 24 h (FIG. 1e)): reduced ionizing radiation-induced apoptosis in T cells
Protection against Etoposide-induced apoptosis [15]: protected
